# The source made the active and inactive calls.
# Molecular target: T1, Short transient receptor potential channel 4 (Mus musculus, UniProt Q9QUQ5)
# T1 sequence (Q9QUQ5 whole entry): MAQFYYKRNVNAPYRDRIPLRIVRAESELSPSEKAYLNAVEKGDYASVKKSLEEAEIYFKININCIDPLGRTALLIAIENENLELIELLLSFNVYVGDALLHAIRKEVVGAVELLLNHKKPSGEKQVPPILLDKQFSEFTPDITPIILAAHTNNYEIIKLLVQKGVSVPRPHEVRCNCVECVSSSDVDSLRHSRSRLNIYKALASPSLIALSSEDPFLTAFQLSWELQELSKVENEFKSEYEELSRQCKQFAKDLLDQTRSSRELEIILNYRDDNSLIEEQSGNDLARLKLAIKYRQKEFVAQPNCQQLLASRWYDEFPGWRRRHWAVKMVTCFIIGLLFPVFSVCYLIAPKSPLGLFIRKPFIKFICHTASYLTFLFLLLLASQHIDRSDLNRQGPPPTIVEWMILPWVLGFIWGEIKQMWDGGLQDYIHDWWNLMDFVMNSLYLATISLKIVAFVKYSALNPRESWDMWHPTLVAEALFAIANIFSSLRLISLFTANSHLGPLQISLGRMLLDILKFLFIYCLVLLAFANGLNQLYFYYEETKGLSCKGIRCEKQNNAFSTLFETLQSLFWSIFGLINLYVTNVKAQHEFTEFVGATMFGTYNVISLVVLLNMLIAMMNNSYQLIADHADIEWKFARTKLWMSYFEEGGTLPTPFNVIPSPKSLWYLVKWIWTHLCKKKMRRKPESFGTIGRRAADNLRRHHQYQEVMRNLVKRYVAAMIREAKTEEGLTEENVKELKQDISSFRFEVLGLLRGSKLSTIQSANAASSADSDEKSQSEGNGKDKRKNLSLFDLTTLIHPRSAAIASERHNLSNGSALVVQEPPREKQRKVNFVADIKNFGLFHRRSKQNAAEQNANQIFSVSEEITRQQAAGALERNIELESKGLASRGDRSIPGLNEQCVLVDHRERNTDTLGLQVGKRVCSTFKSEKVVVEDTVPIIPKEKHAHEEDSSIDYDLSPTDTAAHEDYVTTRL
# Experiment: block of DAMGO-driven TRPC4 calcium entry – cell-based, HEK293 TRPC4/mu-opioid, Fluo-4 calcium, dose response (AID 434942);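 further: potency of inhibitors blocking the TRPC4 calcium response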
# Format: functional
# Conditions: not given
row,EC50,SMILES
1,0.421 µM (active),Cc1c(CN2CCC(n3nccc3NC(=O)CCc3ccccc3)CC2)cnn1C

# Molecular target: T2, Heat shock factor protein 1 (Mus musculus, UniProt P38532)
# T2 sequence (P38532 whole entry): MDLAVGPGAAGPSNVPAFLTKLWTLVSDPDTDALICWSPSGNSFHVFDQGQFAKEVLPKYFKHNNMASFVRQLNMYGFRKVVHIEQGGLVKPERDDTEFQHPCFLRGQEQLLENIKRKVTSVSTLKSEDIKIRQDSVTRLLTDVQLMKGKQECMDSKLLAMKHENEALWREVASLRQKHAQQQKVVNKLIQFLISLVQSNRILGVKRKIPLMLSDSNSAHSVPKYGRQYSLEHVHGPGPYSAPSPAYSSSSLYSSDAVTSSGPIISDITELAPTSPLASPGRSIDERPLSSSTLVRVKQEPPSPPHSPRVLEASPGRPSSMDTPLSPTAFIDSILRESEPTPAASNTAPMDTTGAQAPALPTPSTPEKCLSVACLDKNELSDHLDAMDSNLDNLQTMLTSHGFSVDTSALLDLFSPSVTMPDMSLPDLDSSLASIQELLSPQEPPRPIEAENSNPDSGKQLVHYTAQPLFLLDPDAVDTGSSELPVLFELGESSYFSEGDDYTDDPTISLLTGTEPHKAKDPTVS
# Experiment: enhancement of HSF1-driven luciferase signal – cell-based, NIH3T3, luminescence, dose retest, confirmation (AID 435004);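 further: stress induced by proteasome inhibitor MG132 added 30 min after compound; luciferase reporter driven by HSF1 response element in NIH3T3 cells; actives raise luminescence as potentiators of the MG132 stress response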
# Format: functional
# Conditions: not given
row,SMILES,EC50
1,O=C(CC1C=Cc2ccccc2N1C(=O)c1ccccc1)c1ccccc1 (stereo not given),> 260 µM (inactive)
2,CC(=O)Nc1ccccc1OC(C)C(=O)N1CC(C)CC(C)C1 (stereo not given),> 260 µM (inactive)
3,Cc1ccc(C(=O)O/N=C(\N)Cc2cccc3ccccc23)cc1,> 260 µM (inactive)
4,CCC1CCCCN1C(=O)COC(=O)c1cc2ccccc2cc1O (stereo not given),> 260 µM (inactive)
5,COc1cnn(-c2cc(Oc3ccc(C)cc3)ncn2)c(=O)c1Cl,> 260 µM (inactive)

# Now from value to molecule:
row,EC50,SMILES
1,> 260 µM (inactive),CC1(C)CN(c2cccc(Br)c2)C1=O
2,> 260 µM (inactive),Cc1ccc(S(=O)(=O)NC(=O)Nc2ccc(C)cn2)cc1
3,> 260 µM (inactive),CCCCN1C(=O)/C(=C/c2c[nH]nc2-c2ccccc2)SC1=S
4,> 260 µM (inactive),COc1ccc(F)cc1S(=O)(=O)Nc1ccc2c(c1)OCO2
5,74.4 µM (active),CC(Oc1ccc(F)cc1Br)c1nc(O)c2ccccc2n1 (stereo not given)
6,> 260 µM (inactive),CC(Sc1nnc2ccccn12)C(N)=O (stereo not given)
7,> 260 µM (inactive),O=C(COC(=O)/C=C/c1ccc(Br)o1)NCCCN1CCCC1=O

# System: P388/ADR
# Experiment: cells
# Format: functional
# Conditions: Mus musculus
row,SMILES,GI50
1,CCCCCCCCCCCCCCCCNCC(O)CN (stereo not given),2.05 µM (inactive)
2,O=Cc1c(Cn2ccnc2)c2cc([N+](=O)[O-])ccc2n1Cc1ccccc1,63 µM (inactive)
3,COC(=O)C1C(O)C(C)C(O)OC1C(C)C(O)C(C)/C=C\C=C(/C)C(=O)Nc1c(C)c(OC(C)=O)c2c(c1O)C(=O)C(C)=C1OCOC(/C(C)=C/C(C)=O)=C12 (stereo not given),13.2 µM (inactive)

# System: SN12K1
# Experiment: cells
# Format: functional
# Conditions: Homo sapiens
row,SMILES,GI50
1,CCCCCCCCCCCCCCCCNCC(O)CN (stereo not given),1.77 µM (inactive)
2,O=Cc1c(Cn2ccnc2)c2cc([N+](=O)[O-])ccc2n1Cc1ccccc1,50.8 µM (inactive)
3,COC(=O)C1C(O)C(C)C(O)OC1C(C)C(O)C(C)/C=C\C=C(/C)C(=O)Nc1c(C)c(OC(C)=O)c2c(c1O)C(=O)C(C)=C1OCOC(/C(C)=C/C(C)=O)=C12 (stereo not given),13.3 µM (inactive)

# System: P388
# Experiment: cells
# Format: functional
# Conditions: Mus musculus
row,SMILES,GI50
1,CCCCCCCCCCCCCCCCNCC(O)CN (stereo not given),1.95 µM (inactive)
2,O=Cc1c(Cn2ccnc2)c2cc([N+](=O)[O-])ccc2n1Cc1ccccc1,40.8 µM (inactive)
3,COC(=O)C1C(O)C(C)C(O)OC1C(C)C(O)C(C)/C=C\C=C(/C)C(=O)Nc1c(C)c(OC(C)=O)c2c(c1O)C(=O)C(C)=C1OCOC(/C(C)=C/C(C)=O)=C12 (stereo not given),1.93 µM (inactive)

# System: not listed separately
# Experiment: P. falciparum Dd2 growth inhibitors, dose response, SYBR Green, cherry-picked samples (AID 1159567)
# Format: functional, cell-based
# Conditions: not given
row,SMILES,AC50
1,C[C@@H]1CN([C@@H](C)CO)C(=O)c2cccc(NC(=O)C3CC3)c2O[C@H]1CN(C)Cc1ccc(-c2ccccc2)cc1,3.44 µM (active)
2,COc1cccc(-c2cn(CC[C@@H]3CC[C@H](NS(=O)(=O)c4ccccc4Cl)[C@H](CO)O3)nn2)c1,7.33 µM (active)
3,COc1ccccc1CN1C[C@@H](C)[C@H](OC)CN(C)C(=O)c2cc(NC(=O)Nc3ccccc3OC)ccc2OC[C@H]1C,4.12 µM (active)

# Reference: ChEMBL document CHEMBL1201862, “PubChem BioAssay data set” (2004)
